The source of these data is PubChem BioAssay (NCI).

Among the test systems are 786-0 renal; A498 renal; ACHN renal; BT-549 breast; CAKI-1 renal; COLO 205 colon; HOP-62 NSCLC; M14 melanoma; MDA-MB-231 breast; MDA-N; OVCAR-4 ovarian; OVCAR-8 ovarian; PC-3 prostate; SF-268 CNS; SNB-75 CNS; SR leukemia; SW-620 colon; UACC-257 melanoma.
Assay in all cases: NCI tumour cell line growth inhibition, 48 h

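Where inhibition never reached the appropriate level, the endpoint shown equals the highest concentration tested. Otherwise, values were interpolated linearly from a five-concentration, 48-hour dose response in 96-well plates. Definition used: TGI = concentration required for complete inhibition of growth.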

Turning to `COc1ccccc1CNCc1nc2ccccc2[nH]1`, the TGI with 786-0 renal, with A498 renal, with ACHN renal, in the assay with BT-549 breast, in the assay with CAKI-1 renal and in the assay on COLO 205 colon was > 100 µM in each case. The TGI in the assay with HOP-62 NSCLC, in the assay on M14 melanoma, in the assay with MDA-MB-231 breast, in the assay on MDA-N, with OVCAR-4 ovarian and in the assay with OVCAR-8 ovarian was > 100 µM each time. Moreover, the TGI in the assay with PC-3 prostate, with SF-268 CNS, in the assay with SNB-75 CNS, in the assay with SR leukemia, in the assay with SW-620 colon and with UACC-257 melanoma was > 100 µM throughout.

On to `CC(C)(CCCCC(C)(C)NCC1COc2ccccc2O1)NCC1COc2ccccc2O1` (configuration not stated), for which the TGI is > 10 µM in the assay on 786-0 renal; > 10 µM in the assay on A498 renal; > 10 µM with ACHN renal; > 10 µM in the assay with BT-549 breast; > 10 µM with CAKI-1 renal; 4.12 µM in the assay on COLO 205 colon. Also, the TGI with HOP-62 NSCLC is > 10 µM; in the assay on M14 melanoma, 3.4 µM; in the assay on MDA-MB-231 breast, > 10 µM; in the assay on MDA-N, 5.66 µM; with OVCAR-4 ovarian, > 10 µM; in the assay on OVCAR-8 ovarian, > 10 µM. The TGI with PC-3 prostate was > 10 µM; in the assay on SF-268 CNS, > 10 µM; with SNB-75 CNS it was > 10 µM; with SR leukemia it was > 10 µM; in the assay on SW-620 colon, > 10 µM; in the assay on UACC-257 melanoma it was 4.1 µM.

On to `CC(CCC(=O)O)[C@H]1CCC2[C@H]3C(CC(=O)[C@@]21C)[C@@]1(C)CCC(O)C[C@H]1C[C@@H]3O` (some centres not stated), for which the TGI in the assay on 786-0 renal, with A498 renal, in the assay on ACHN renal, with BT-549 breast, with CAKI-1 renal and in the assay on COLO 205 colon was > 100 µM each time. Moreover, the TGI with HOP-62 NSCLC, with M14 melanoma, with MDA-MB-231 breast, with MDA-N, in the assay on OVCAR-4 ovarian and in the assay on OVCAR-8 ovarian was > 100 µM each time. Further, the TGI with PC-3 prostate, in the assay with SF-268 CNS, in the assay with SNB-75 CNS, in the assay on SR leukemia, in the assay with SW-620 colon and in the assay with UACC-257 melanoma was > 100 µM throughout.

On to `CC(=C(C(=O)O)C(=O)O)c1cc(-c2cccs2)cc(-c2ccc(Cl)cc2)c1O`, for which the TGI came to 32.2 µM in the assay with 786-0 renal; 30.8 µM in the assay with A498 renal; 29.4 µM with ACHN renal; 34.4 µM with BT-549 breast; 40.6 µM in the assay on CAKI-1 renal; 44.8 µM in the assay on COLO 205 colon. In addition, the TGI in the assay with HOP-62 NSCLC was 60.4 µM; in the assay with M14 melanoma it was 32.7 µM; in the assay on MDA-MB-231 breast, 43.5 µM; in the assay with MDA-N it was 31.4 µM; with OVCAR-4 ovarian, > 71.9 µM; in the assay on OVCAR-8 ovarian it was 52.8 µM. The TGI is 28.3 µM with PC-3 prostate; 54.9 µM with SF-268 CNS; 37.6 µM in the assay with SNB-75 CNS; 37.1 µM with SR leukemia; 43.6 µM in the assay on SW-620 colon; 33.5 µM in the assay with UACC-257 melanoma.

Turning to `COc1ccc(-n2cnc3c(NC(C)(C)C(=O)O)ncnc32)cc1`, the TGI in the assay with 786-0 renal, in the assay on A498 renal, in the assay with ACHN renal, in the assay with BT-549 breast, with CAKI-1 renal and in the assay with COLO 205 colon was > 100 µM throughout. Besides, the TGI with HOP-62 NSCLC, with M14 melanoma, with MDA-MB-231 breast, in the assay on MDA-N, in the assay with OVCAR-4 ovarian and in the assay on OVCAR-8 ovarian was > 100 µM in each case. The TGI with PC-3 prostate, in the assay on SF-268 CNS, with SNB-75 CNS, in the assay on SR leukemia, with SW-620 colon and in the assay with UACC-257 melanoma was > 100 µM throughout.

As to `N#CC1=C(N2CCOCC2)CCC1`, the TGI in the assay with 786-0 renal, in the assay with A498 renal, with ACHN renal, with BT-549 breast, with CAKI-1 renal and in the assay on COLO 205 colon was > 100 µM throughout. The TGI in the assay on HOP-62 NSCLC, in the assay on M14 melanoma, in the assay with MDA-MB-231 breast, with MDA-N, in the assay with OVCAR-4 ovarian and with OVCAR-8 ovarian was > 100 µM in each case. Also, the TGI with PC-3 prostate, with SF-268 CNS, in the assay with SNB-75 CNS, in the assay on SR leukemia, with SW-620 colon and in the assay with UACC-257 melanoma was > 100 µM throughout.

Regarding `CC(C)N(c1cc2c(cc1F)c(=O)c(C(=O)O)cn2-c1ccc(N2CCN(C)CC2)cn1)C(C)C`, the TGI in the assay with 786-0 renal, in the assay on A498 renal, with BT-549 breast, in the assay with CAKI-1 renal, in the assay with COLO 205 colon and with HOP-62 NSCLC was > 100 µM in each case. The TGI in the assay with M14 melanoma, with MDA-MB-231 breast, with MDA-N, in the assay with OVCAR-4 ovarian, with OVCAR-8 ovarian and in the assay on PC-3 prostate was > 100 µM in each case. The TGI with SF-268 CNS, with SNB-75 CNS, in the assay on SR leukemia, in the assay with SW-620 colon and in the assay on UACC-257 melanoma was > 100 µM each time.

Consider `C=CC(c1ccccc1)C1(O)c2cccc(O)c2C(=O)c2c(O)cccc21` (configuration not stated), for which the TGI in the assay with 786-0 renal worked out at 31.1 µM; in the assay on A498 renal, 34.6 µM; in the assay on ACHN renal, 31.9 µM; in the assay on BT-549 breast it was 34.8 µM; in the assay with CAKI-1 renal, 42.5 µM; in the assay on HOP-62 NSCLC, 41.1 µM. Further, the TGI in the assay with M14 melanoma was found to be 34.5 µM; in the assay on MDA-MB-231 breast, 36.7 µM; with MDA-N, 20.7 µM; in the assay on OVCAR-4 ovarian, 33.2 µM; with OVCAR-8 ovarian, 43 µM; in the assay on PC-3 prostate, 28.1 µM. Further, the TGI in the assay on SF-268 CNS is 36.6 µM; with SNB-75 CNS, 41.8 µM; in the assay with SR leukemia, 24.2 µM; in the assay on SW-620 colon, 37 µM; in the assay with UACC-257 melanoma, 40.2 µM.
